Data: the NIST ThermoML archive (doi:10.1016/j.jct.2017.10.012)

Settings: Liquid, Vibrating tube method

CCCC[n+]1cccc(C)c1.O=S(=O)([N-]S(=O)(=O)C(F)(F)F)C(F)(F)F
Settings	mass density [kg/m3]
278.15 K, 100 kPa	1431.5
278.15 K, 101.33 kPa	1430.9
278.15 K, 1000 kPa	1432.1
278.15 K, 10000 kPa	1438.3
278.15 K, 20000 kPa	1444.9
278.15 K, 40000 kPa	1457.2
278.15 K, 60000 kPa	1468.5
278.15 K, 80000 kPa	1479.1
278.15 K, 100000 kPa	1488.9
278.15 K, 120000 kPa	1498.1
279.15 K, 101.33 kPa	1429.9
280.15 K, 101.33 kPa	1428.9
281.15 K, 101.33 kPa	1427.9
282.15 K, 101.33 kPa	1427
283.15 K, 101.33 kPa	1426
284.15 K, 101.33 kPa	1425
285.15 K, 101.33 kPa	1424
286.15 K, 101.33 kPa	1423.1
287.15 K, 101.33 kPa	1422.1
288.15 K, 101.33 kPa	1421.2
289.15 K, 101.33 kPa	1420.2
290.15 K, 101.33 kPa	1419.3
291.15 K, 101.33 kPa	1418.3
292.15 K, 101.33 kPa	1417.4
293.15 K, 101.33 kPa	1416.5
294.15 K, 101.33 kPa	1415.6
295.15 K, 101.33 kPa	1414.6
296.15 K, 101.33 kPa	1413.7
297.15 K, 101.33 kPa	1412.8
298.15 K, 100 kPa	1413.3
298.15 K, 101.33 kPa	1411.9
298.15 K, 1000 kPa	1414
298.15 K, 10000 kPa	1420.4
298.15 K, 20000 kPa	1427.3
298.15 K, 40000 kPa	1440.1
298.15 K, 60000 kPa	1452
298.15 K, 80000 kPa	1463
298.15 K, 100000 kPa	1473.5
298.15 K, 120000 kPa	1483.1
299.15 K, 101.33 kPa	1410.9
300.15 K, 101.33 kPa	1410
301.15 K, 101.33 kPa	1409.1
302.15 K, 101.33 kPa	1408.2
303.15 K, 101.33 kPa	1407.3
304.15 K, 101.33 kPa	1406.4
305.15 K, 101.33 kPa	1405.4
306.15 K, 101.33 kPa	1404.5
307.15 K, 101.33 kPa	1403.6
308.15 K, 101.33 kPa	1402.7
309.15 K, 101.33 kPa	1401.8
310.15 K, 101.33 kPa	1400.9
311.15 K, 101.33 kPa	1399.9
312.15 K, 101.33 kPa	1399
313.15 K, 100 kPa	1399.8
313.15 K, 101.33 kPa	1398.1
313.15 K, 1000 kPa	1400.5
313.15 K, 10000 kPa	1407.3
313.15 K, 20000 kPa	1414.5
313.15 K, 40000 kPa	1428
313.15 K, 60000 kPa	1440.3
313.15 K, 80000 kPa	1451.7
313.15 K, 100000 kPa	1462.4
313.15 K, 120000 kPa	1472.1
314.15 K, 101.33 kPa	1397.2
315.15 K, 101.33 kPa	1396.3
316.15 K, 101.33 kPa	1395.4
317.15 K, 101.33 kPa	1394.5
318.15 K, 101.33 kPa	1393.6
319.15 K, 101.33 kPa	1392.7
320.15 K, 101.33 kPa	1391.8
321.15 K, 101.33 kPa	1390.9
322.15 K, 101.33 kPa	1390
323.15 K, 101.33 kPa	1389.2
324.15 K, 101.33 kPa	1388.2
325.15 K, 101.33 kPa	1387.4
326.15 K, 101.33 kPa	1386.5
327.15 K, 101.33 kPa	1385.6
328.15 K, 101.33 kPa	1384.7
329.15 K, 101.33 kPa	1383.8
330.15 K, 101.33 kPa	1382.9
331.15 K, 101.33 kPa	1382.1
332.15 K, 101.33 kPa	1381.3
333.15 K, 100 kPa	1381.5
333.15 K, 101.33 kPa	1380.4
333.15 K, 1000 kPa	1382.2
333.15 K, 10000 kPa	1389.6
333.15 K, 20000 kPa	1397.2
333.15 K, 40000 kPa	1411.4
333.15 K, 60000 kPa	1424.4
333.15 K, 80000 kPa	1436.3
333.15 K, 100000 kPa	1447.5
333.15 K, 120000 kPa	1457.6
334.15 K, 101.33 kPa	1379.4
335.15 K, 101.33 kPa	1378.5
336.15 K, 101.33 kPa	1377.6
337.15 K, 101.33 kPa	1376.7
338.15 K, 101.33 kPa	1375.8
339.15 K, 101.33 kPa	1374.9
340.15 K, 101.33 kPa	1374.1
341.15 K, 101.33 kPa	1373.3
342.15 K, 101.33 kPa	1372.4
343.15 K, 101.33 kPa	1371.4
344.15 K, 101.33 kPa	1370.5
345.15 K, 101.33 kPa	1369.7
346.15 K, 101.33 kPa	1368.7
347.15 K, 101.33 kPa	1367.8
348.15 K, 100 kPa	1367.9
348.15 K, 101.33 kPa	1366.9
348.15 K, 1000 kPa	1368.7
348.15 K, 10000 kPa	1376.4
348.15 K, 20000 kPa	1384.4
348.15 K, 40000 kPa	1399.2
348.15 K, 60000 kPa	1412.7
348.15 K, 80000 kPa	1425
348.15 K, 100000 kPa	1436.5
348.15 K, 120000 kPa	1446.9
349.15 K, 101.33 kPa	1366
350.15 K, 101.33 kPa	1364.9
351.15 K, 101.33 kPa	1364
352.15 K, 101.33 kPa	1363
353.15 K, 101.33 kPa	1362.2
354.15 K, 101.33 kPa	1361.2
355.15 K, 101.33 kPa	1360.4
356.15 K, 101.33 kPa	1359.4
357.15 K, 101.33 kPa	1358.6
358.15 K, 101.33 kPa	1357.7
359.15 K, 101.33 kPa	1356.8
360.15 K, 101.33 kPa	1356
361.15 K, 101.33 kPa	1355.1
362.15 K, 101.33 kPa	1354.3
363.15 K, 101.33 kPa	1353.4
364.15 K, 101.33 kPa	1352.6
365.15 K, 101.33 kPa	1351.7
366.15 K, 101.33 kPa	1350.9
367.15 K, 101.33 kPa	1350
368.15 K, 101.33 kPa	1349.2
369.15 K, 101.33 kPa	1348.3
370.15 K, 101.33 kPa	1347.5
371.15 K, 101.33 kPa	1346.7
372.15 K, 101.33 kPa	1345.8
373.15 K, 100 kPa	1346.3
373.15 K, 101.33 kPa	1345
373.15 K, 1000 kPa	1346.5
373.15 K, 10000 kPa	1354.8
373.15 K, 20000 kPa	1363.4
373.15 K, 40000 kPa	1379.2
373.15 K, 60000 kPa	1393.5
373.15 K, 80000 kPa	1406.6
373.15 K, 100000 kPa	1418.7
373.15 K, 120000 kPa	1429.9
398.15 K, 100 kPa	1324.8
398.15 K, 1000 kPa	1324.6
398.15 K, 10000 kPa	1333.5
398.15 K, 20000 kPa	1342.9
398.15 K, 40000 kPa	1359.8
398.15 K, 60000 kPa	1374.9
398.15 K, 80000 kPa	1388.7
398.15 K, 100000 kPa	1401.4
398.15 K, 120000 kPa	1413.4
